# Assay results from PMC9291951 (British Journal of Pharmacology, 2020).
# Legend:
# hTRPV4-Y591A = hTRPV4-Y591A (Homo sapiens, UniProt Q9HBA0, Y591A); test: Ca2+ imaging; assay type: cell-based
# hTRPV4-Y591H = hTRPV4-Y591H (Homo sapiens, UniProt Q9HBA0, Y591H); test: Ca2+ imaging; assay type: cell-based
# [1] = target: human TRPV4 wild-type (hTRPV4-WT) (Homo sapiens, UniProt Q9HBA0); test: Ca2+ imaging; assay type: cell-based; conditions: HeLa cells
# hTRPV4-D546A = hTRPV4-D546A (Homo sapiens, UniProt Q9HBA0, D546A); test: Ca2+ imaging; assay type: cell-based; conditions: for Blocking effect in mutant versus wild-type channel: D546A
# TRPV4 = conditions: read-out: IC50 (antagonist); ref Cheung et al., 2017; cited from earlier work
# Sequence of hTRPV4-D546A (Q9HBA0 whole entry D546A): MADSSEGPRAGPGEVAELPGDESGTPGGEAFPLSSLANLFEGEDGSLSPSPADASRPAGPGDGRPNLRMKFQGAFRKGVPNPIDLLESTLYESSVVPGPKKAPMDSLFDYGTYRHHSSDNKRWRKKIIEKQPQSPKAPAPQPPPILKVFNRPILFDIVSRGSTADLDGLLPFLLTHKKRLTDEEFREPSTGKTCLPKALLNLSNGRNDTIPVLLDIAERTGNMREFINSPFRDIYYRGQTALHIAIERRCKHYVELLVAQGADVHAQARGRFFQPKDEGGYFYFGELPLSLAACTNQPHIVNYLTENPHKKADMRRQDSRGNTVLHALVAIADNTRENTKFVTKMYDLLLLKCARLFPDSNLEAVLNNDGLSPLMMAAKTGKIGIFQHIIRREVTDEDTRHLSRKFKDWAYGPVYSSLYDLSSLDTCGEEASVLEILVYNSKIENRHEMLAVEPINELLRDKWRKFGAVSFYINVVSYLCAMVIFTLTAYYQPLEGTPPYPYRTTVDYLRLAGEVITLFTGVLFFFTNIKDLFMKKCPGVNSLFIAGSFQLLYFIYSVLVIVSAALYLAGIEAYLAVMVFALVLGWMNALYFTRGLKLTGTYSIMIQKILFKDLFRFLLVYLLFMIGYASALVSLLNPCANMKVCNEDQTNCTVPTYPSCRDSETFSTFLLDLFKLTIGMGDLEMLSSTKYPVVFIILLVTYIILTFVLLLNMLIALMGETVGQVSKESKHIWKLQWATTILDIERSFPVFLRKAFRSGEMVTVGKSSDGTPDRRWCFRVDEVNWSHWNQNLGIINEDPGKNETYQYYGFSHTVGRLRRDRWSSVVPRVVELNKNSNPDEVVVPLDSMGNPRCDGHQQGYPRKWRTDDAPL
# Sequence of hTRPV4-Y591H (Q9HBA0 whole entry Y591H): as the sequence (Q9HBA0 whole entry D546A) above, with A546D, Y591H counted along it
# Sequence of hTRPV4-Y591A (Q9HBA0 whole entry Y591A): as the sequence (Q9HBA0 whole entry D546A) above, with A546D, Y591A counted along it
# Sequence of human TRPV4 wild-type (hTRPV4-WT) (Q9HBA0 whole entry): as the sequence (Q9HBA0 whole entry D546A) above, with A546D counted along it
smiles,measurement,setting,value
"CC(C)C[C@H](NC(=O)c1cc2ccccc2s1)C(=O)N1CCN(C(=O)[C@H](CO)NS(=O)(=O)c2ccc(Cl)cc2Cl)CC1 [GSK1016790A, N‐((1S)‐1‐{[4‐((2S)‐2‐{[(2,4‐Dichlorophenyl)sulfonyl]amino}‐3‐hydroxypropanoyl)‐1‐piperazinyl]carbonyl}‐3‐methylbutyl)‐1‐benzothiophene‐2‐carboxamide]",Channel response to agonist,"hTRPV4-Y591A; hTRPV4-Y591A, 1-nM GSK1016790A",Neither hTRPV4‐Y591A nor hTRPV4‐Y591H responded
same,Channel response to agonist,"hTRPV4-Y591H; hTRPV4-Y591H, 1-nM GSK1016790A",Neither hTRPV4‐Y591A nor hTRPV4‐Y591H responded
same,Channel activation by agonist,[1],activated
same,Channel activation by agonist,"hTRPV4-D546A; TRPV4-D546A, HeLa cells, Ca2+ imaging",activated
N.N.N.N.N.N.N.N.N.N.N.N.N.N.[Cl-].[Cl-].[Cl-].[Cl-].[Cl-].[Cl-].[O-2].[O-2].[Ru+3].[Ru+3].[Ru+4] [ruthenium red],Blocking effect in mutant versus wild-type channel,"hTRPV4-Y591A; Y591A, 30% hypotonic solution, 1-μM ruthenium red",not affected
same,Blocking effect in mutant versus wild-type channel,"hTRPV4-Y591H; Y591H, 30% hypotonic solution, 1-μM ruthenium red",not affected
same,Blocking effect in mutant versus wild-type channel,"hTRPV4-D546A; 1-nM GSK1016790A, ruthenium red 10 nM to 10 μM",not affected
same,Blocking effect in mutant versus wild-type channel,"hTRPV4-D546A; 30% hypotonic solution, 1-μM ruthenium red",not affected
CC(C)(O)c1cnc(N2C[C@@]3(CCC[C@](C)(Cn4cnc5ccc(C#N)cc54)C3)OC2=O)cn1 [GSK2798745],IC50,TRPV4,0.016 µM
